Measurements taken from ChEMBL document CHEMBL1201862, “PubChem BioAssay data set” (2004).
Calls of active or inactive are those of the source.

Columns and labels:
[1] = target: Cytochrome P450 2C19 (Homo sapiens, UniProt P33261); assay: Cytochrome panel assay with activity outcomes. Panel member name: p450-cyp2c19 Compounds with AC50 equal or less than 10 uM are considered active; format: functional
[2] = target: Cytochrome P450 2C9 (Homo sapiens, UniProt P11712)
[3] = target: Cytochrome P450 3A4 (Homo sapiens, UniProt P08684);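 note: CYP3A4 tested as one member of a cytochrome P450 panel screen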
Sequence of Cytochrome P450 3A4 (P08684 whole entry): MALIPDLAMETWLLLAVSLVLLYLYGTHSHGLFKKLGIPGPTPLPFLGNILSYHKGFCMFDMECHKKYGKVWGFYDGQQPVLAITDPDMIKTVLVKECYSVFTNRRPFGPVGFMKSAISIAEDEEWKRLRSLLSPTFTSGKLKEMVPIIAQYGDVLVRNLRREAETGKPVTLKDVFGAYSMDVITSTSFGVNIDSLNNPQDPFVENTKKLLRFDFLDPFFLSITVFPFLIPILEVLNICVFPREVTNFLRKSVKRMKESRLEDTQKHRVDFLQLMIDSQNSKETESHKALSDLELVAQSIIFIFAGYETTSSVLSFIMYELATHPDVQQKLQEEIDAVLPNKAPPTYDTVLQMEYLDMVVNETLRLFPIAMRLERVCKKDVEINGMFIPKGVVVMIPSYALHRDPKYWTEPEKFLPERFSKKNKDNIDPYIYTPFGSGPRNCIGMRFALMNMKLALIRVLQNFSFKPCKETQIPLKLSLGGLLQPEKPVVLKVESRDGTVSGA

[4] = target: Cytochrome P450 2D6 (Homo sapiens, UniProt P10635);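 note: CYP2D6 member of a cytochrome P450 panel assay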
Sequence of Cytochrome P450 2D6 (P10635 whole entry): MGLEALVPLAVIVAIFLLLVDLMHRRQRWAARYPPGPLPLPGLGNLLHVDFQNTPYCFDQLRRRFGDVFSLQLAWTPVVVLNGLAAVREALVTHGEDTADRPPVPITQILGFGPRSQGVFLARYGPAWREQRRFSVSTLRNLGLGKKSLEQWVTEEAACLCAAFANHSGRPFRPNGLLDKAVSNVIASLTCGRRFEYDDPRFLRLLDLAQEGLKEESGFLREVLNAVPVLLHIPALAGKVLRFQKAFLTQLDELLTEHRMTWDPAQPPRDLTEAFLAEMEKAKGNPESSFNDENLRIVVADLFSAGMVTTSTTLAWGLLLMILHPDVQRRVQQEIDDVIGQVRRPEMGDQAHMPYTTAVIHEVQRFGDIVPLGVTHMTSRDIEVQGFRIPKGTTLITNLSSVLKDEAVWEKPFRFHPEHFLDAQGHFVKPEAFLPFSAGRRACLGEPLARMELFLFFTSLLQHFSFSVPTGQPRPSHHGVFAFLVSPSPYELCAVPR

[5] = target: T1, Replicative DNA helicase DnaB (Mycobacterium tuberculosis, UniProt P9WMR3); assay: DnaB intein splicing inhibitors, dose response, biochemical, cell-free fluorescence (AID 449749); format: functional
T1 sequence (P9WMR3 whole entry): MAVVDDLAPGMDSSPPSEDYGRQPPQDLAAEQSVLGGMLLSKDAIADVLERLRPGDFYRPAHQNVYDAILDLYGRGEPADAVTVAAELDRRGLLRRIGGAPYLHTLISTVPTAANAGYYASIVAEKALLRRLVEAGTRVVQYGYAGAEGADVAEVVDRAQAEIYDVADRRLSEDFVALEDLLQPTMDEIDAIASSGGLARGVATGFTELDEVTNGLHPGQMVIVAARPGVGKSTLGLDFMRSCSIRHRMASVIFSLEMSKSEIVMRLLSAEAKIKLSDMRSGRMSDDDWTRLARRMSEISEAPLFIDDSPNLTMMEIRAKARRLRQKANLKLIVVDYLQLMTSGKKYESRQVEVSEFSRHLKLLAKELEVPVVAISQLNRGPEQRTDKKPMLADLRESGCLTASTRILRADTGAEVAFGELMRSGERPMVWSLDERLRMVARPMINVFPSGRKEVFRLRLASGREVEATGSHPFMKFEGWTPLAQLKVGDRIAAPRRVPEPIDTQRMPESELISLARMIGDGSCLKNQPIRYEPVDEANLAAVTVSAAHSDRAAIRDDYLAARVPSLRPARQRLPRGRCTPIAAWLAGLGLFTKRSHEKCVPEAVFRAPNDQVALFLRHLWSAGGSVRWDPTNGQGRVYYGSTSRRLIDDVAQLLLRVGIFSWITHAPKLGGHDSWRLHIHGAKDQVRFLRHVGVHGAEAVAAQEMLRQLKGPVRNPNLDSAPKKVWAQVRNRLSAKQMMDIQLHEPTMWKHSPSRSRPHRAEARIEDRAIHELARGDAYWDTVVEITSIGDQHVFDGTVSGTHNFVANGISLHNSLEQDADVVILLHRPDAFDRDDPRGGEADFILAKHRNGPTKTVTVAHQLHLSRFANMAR

[6] = target: T2, Protein RecA (Mycobacterium tuberculosis, UniProt P9WHJ3); assay: Fluorescence Cell-Free Homogeneous Dose Retest to Identify Inhibitors of RecA-Intein Splicing Activity. [Related pubchem assays (depositor defined):AID2097, AID2223, AID489010, AID492950]; format: functional
T2 sequence (P9WHJ3 whole entry): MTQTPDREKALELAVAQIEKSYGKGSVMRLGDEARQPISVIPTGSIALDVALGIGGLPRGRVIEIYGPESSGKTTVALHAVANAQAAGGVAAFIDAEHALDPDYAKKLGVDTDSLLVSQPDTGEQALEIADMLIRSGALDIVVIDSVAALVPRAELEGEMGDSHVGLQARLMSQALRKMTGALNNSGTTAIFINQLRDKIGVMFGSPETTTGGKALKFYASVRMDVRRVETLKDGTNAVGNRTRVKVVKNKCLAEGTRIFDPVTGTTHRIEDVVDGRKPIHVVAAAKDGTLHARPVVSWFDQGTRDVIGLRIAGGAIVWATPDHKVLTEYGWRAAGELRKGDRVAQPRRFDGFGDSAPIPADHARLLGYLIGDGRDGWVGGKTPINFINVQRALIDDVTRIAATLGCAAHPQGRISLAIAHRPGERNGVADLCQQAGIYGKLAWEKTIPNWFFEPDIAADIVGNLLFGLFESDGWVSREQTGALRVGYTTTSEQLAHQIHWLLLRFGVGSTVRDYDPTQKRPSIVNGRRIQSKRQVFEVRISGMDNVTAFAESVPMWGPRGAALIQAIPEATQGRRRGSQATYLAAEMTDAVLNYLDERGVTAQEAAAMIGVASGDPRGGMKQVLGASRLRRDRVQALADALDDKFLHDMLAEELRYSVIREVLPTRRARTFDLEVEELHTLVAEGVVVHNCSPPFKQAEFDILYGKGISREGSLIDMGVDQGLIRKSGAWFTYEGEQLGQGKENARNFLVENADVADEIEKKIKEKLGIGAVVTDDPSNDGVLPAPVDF

[7] = Luminescence Cell-Based Dose Response HTS to Identify Activators of Luciferase Translation or Activity in H4 […] Cells. [Related pubchem assays: 1829 (Project Summary), 1814 (Primary HTS)]; format: functional
[8] = test system: H4; assay: Luminescence Cell-Based Dose Response HTS to Identify Activators of 5'UTR Stem-Loop Driven Prion Protein mRNA Translation in H4 Neuroglioblastoma Cells. [Related pubchem assays: 1829 (Project Summary), 1814 (Primary HTS)]; format: functional; conditions: Homo sapiens
[9] = Luminescence Cell-Based Dose Retest to Confirm Inhibitors of Cancer Stem Cells. [Related pubchem assays (depositor defined):AID2717, AID2721]; format: functional; conditions: Homo sapiens
[10] = luciferase reporter signal suppression in cells – H4 neuroglioma cells, luminescence, dose response (AID 1990); format: functional, cell-based
[11] = test system: Streptococcus; assay: GAS UMAA2166 growth inhibition – luminescence, BacTiterGlo, counter-screen for streptokinase expression inhibitor project, dose response (AID 1915); format: functional, organism-based;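 note: potency for reduction of bacterial viability or growth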
[12] = alpha-synuclein stem-loop luciferase translation blockers – H4 neuroglioma cells, luminescence, confirmation (AID 1988); format: functional, cell-based
[13] = Luminescence Cell-Based Dose Response HTS to Identify Inhibitors of 5'UTR Stem-Loop Driven Prion Protein mRNA Translation in H4 Neuroglioblastoma Cells. [Related pubchem assays: 1827 (Project Summary), 1813 (Primary HTS)]; format: functional
[14] = test system: Streptococcus sp. 'group A'; assay: Streptococcus pyogenes SK(-)GAS viability under kanamycin – luminescence, BacTiterGlo, confirmation, counter-screen for streptokinase expression inhibitor project, dose response (AID 1900); format: functional, organism-based
[15] = test system: INS1; assay: INS-1E survival protection against cytokine death – cell-based, luminescence, retest, dose response (AID 449756); format: functional; conditions: Rattus norvegicus;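 note: cell death triggered by IL-1 beta plus TNF-alpha plus IFN-gamma mixture; protective hits raise ATP signal compared with cytokine alone wells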
[16] = Trypanosoma cruzi growth suppression in host cells – NIH3T3 host cells, beta-gal luminescence, confirmation (AID 2044); format: functional, cell-based;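 note: intracellular parasites grown in NIH/3T3 mouse fibroblasts as host cells; luminescent beta-galactosidase reporter signal from transgenic T. cruzi replicating inside host cells; inhibitors lower the luminescence signal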
[17] = NIH3T3 cell viability loss – ATP luminescence, mouse fibroblasts, counter-screen, dose response (AID 2010); format: functional, cell-based;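 note: cells exposed to compound for about 90 hours before reading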
[18] = non-specific 3'UTR reporter inhibition in Clone20-Shn3RL – cell-based, Renilla luciferase, cherry-picked, counter-screen for Shn3 inhibitor project, dose response (AID 624133); format: functional
[19] = reduction of Shn3 3'UTR-driven luciferase in osteoblasts – cell-based, Clone20 osteoblasts, firefly luciferase, cherry-picked, dose response (AID 624132); format: functional;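 note: firefly luciferase luminescence from reporter carrying the Shn3 3'UTR in osteoblasts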
[20] = target: T3, Heat shock factor protein 1 (Mus musculus, UniProt P38532); assay: decrease of HSF1-responsive luciferase luminescence – cell-based, NIH3T3, dose retest, confirmation (AID 2382); format: functional;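 note: NIH3T3 fibroblasts with HSF1-driven luciferase reporter stressed by proteasome inhibitor MG132; luminescence from HSF1-driven luciferase expression after 8 hours of MG132 stress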
T3 sequence (P38532 whole entry): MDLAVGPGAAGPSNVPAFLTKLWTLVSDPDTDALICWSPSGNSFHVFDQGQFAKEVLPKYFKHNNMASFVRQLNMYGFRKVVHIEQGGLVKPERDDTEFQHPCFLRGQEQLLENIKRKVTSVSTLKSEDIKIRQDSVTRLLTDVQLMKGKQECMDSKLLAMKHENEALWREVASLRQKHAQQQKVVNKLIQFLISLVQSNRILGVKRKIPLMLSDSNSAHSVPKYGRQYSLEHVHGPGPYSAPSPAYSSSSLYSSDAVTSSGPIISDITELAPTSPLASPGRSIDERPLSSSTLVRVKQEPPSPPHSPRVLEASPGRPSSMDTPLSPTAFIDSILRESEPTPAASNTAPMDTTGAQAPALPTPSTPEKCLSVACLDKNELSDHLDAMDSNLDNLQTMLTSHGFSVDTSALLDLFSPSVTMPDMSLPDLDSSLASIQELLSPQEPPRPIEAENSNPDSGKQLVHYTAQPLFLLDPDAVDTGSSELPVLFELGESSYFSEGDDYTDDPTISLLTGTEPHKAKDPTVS

Sequence of Cytochrome P450 2C19 (P33261 whole entry): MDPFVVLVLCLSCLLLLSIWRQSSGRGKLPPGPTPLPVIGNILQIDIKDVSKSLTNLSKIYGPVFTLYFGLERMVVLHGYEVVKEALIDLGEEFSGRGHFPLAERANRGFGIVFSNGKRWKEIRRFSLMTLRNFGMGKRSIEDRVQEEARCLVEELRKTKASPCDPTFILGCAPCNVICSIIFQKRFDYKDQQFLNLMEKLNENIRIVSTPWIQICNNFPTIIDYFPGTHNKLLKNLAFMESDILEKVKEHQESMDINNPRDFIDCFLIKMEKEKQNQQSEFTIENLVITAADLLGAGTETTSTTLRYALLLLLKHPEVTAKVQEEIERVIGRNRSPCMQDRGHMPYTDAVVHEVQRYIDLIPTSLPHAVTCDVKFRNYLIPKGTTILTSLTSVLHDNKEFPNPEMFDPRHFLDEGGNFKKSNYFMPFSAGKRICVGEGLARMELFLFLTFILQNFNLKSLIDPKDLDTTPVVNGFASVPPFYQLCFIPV
Sequence of Cytochrome P450 2C9 (P11712 whole entry): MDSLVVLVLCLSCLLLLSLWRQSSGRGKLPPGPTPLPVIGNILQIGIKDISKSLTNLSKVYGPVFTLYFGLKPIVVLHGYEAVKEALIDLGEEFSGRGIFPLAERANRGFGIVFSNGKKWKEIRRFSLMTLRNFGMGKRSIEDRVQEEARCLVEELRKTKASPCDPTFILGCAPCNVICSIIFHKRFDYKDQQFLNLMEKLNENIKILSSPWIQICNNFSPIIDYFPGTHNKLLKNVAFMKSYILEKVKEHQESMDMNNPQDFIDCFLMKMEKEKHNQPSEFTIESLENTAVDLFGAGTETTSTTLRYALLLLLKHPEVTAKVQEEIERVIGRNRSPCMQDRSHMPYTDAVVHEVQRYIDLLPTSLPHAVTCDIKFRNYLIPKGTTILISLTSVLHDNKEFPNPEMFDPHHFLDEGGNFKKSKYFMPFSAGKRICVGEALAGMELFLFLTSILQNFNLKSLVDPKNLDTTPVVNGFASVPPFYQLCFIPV

## COc1ccc(-n2c(=O)c(C)nc3cnc(Nc4cccc(OC)c4)nc32)cc1
[1]; read-out: AC50
  AC50: 39.8 µM (inconclusive)
[2]
  AC50: 39.8 µM (inconclusive)
[3]
  AC50: 10 µM (inconclusive)

## C[N+](C)(C)c1nc(N)nc2c1ncn2[C@H]1O[C@@H](CO)[C@@H](O)[C@H]1O
[1]
  AC50: inconclusive

## Cc1cc(NC(=O)Nc2ccc(N(C)C)cc2)c2cc(F)cc(F)c2n1
[4]
  AC50: 31.6 µM (inconclusive)

## CN1CCc2[nH]nc(-c3n[nH]c4c3CN(C)CC4)c2C1
[1]
  AC50: inconclusive

## CC(C)(C)c1[nH]nc2c1C(Cc1ccccc1)C(C#N)=C(N)O2 (stereo not given)
[5]
  AC50: 13.8 µM (active)
[6]
  EC50: 2.31 µM (active)

## COc1cccc(-c2[nH]nc3c2C(c2ccc(C)o2)C(C#N)=C(N)O3)c1 (stereo not given)
[2]
  AC50: 15.8 µM (inconclusive)
[5]
  AC50: 8.74 µM (active)
[6]
  EC50: 1.53 µM (active)

## CCOc1cc(C(c2c(C)n[nH]c2O)c2c(C)n[nH]c2O)cc(Cl)c1O
[5]
  AC50: > 380 µM (inactive)
[6]
  EC50: 4.74 µM (active)

## N#CC(C#N)=NNc1ccc(S(=O)(=O)N2CCCCC2)cc1
[5]
  AC50: 4.03 µM (active)
[6]
  EC50: 9.78 µM (active)

## FC(F)(F)c1ccccc1-c1nc(NC2CCNCC2)c2ccccc2n1
[1]
  AC50: inconclusive

## Cc1cc(-c2c(C)[nH]n(-c3ccccc3)c2=O)n(-c2ccccc2)n1
[1]; read-out: AC50
  AC50: 20 µM (inconclusive)

## Cc1cc(NC(=O)COC(=O)c2ccc(NS(=O)(=O)c3ccc(C)c(C)c3)cc2)no1
[1]; read-out: AC50
  AC50: 14.1 µM (inconclusive)

## COc1cccc(Nc2ncc3ncc(=O)n(C)c3n2)c1
[1]
  AC50: inconclusive
[3]
  AC50: 12.6 µM (inconclusive)

## O=P(O)(O)CCP(=O)(c1ccccc1)c1ccccc1
[1]
  AC50: inconclusive

## Cc1ccc(C(=O)NNc2ncnc3ccccc23)cc1
[7]
  EC50: 6.62 µM (active)
[8]
  EC50: > 120 µM (not active)

## O=C(CSc1nnc(-c2ccc(Cl)cc2)o1)N1CCOCC1
[7]
  EC50: 46.3 µM (active)
[8]
  EC50: 11.8 µM (active)

## O=[N+]([O-])c1ccc(O)c(-c2nc(-c3ccccc3)c(-c3cccs3)[nH]2)c1
[9]
  AC50: 0.662 µM (active)
[10]
  EC50: 18.2 µM (active)
[11]
  EC50: 2.38 µM (active)
[12]
  EC50: > 120 µM (not active)
[13]
  EC50: > 120 µM (not active)
[14]
  EC50: 1.23 µM (active)

## O=[N+]([O-])c1cc(-c2ccc(C(=S)N3CCOCC3)o2)ccc1Cl
[5]
  AC50: 39.9 µM (active)
[6]
  EC50: 10.2 µM (active)

## C/C(=N\NC(=O)COc1ccccc1-c1ccccc1)c1ccc(O)cc1O
[15]
  AC50: 2.48 µM (active)
[10]
  EC50: 11.1 µM (active)
[11]
  EC50: 5.4 µM (active)
[12]
  EC50: 9.9 µM (active)
[13]
  EC50: 9.87 µM (active)
[14]
  EC50: 3.01 µM (active)
[16]
  EC50: 1.24 µM (active)
[17]
  EC50: 4.94 µM (active)

## O=C(Oc1ccc(C(=S)N2CCOCC2)cc1)c1ccc([N+](=O)[O-])cc1[N+](=O)[O-]
[5]
  AC50: 18.6 µM (active)
[6]
  EC50: 10.6 µM (active)

## CCCc1cc(=O)oc2c(CN3CCOCC3)c(O)ccc12
[1]; read-out: AC50
  AC50: 25.1 µM (inconclusive)

## CCCC1C(C#N)=C(N)Oc2[nH]nc(C(C)(C)C)c21 (stereo not given)
[5]
  AC50: 2.36 µM (active)
[6]
  EC50: 0.504 µM (active)

## CCC(=O)c1cn(CC(=O)Nc2cccc(C)c2C)c2ccccc12
[18]
  AC50: 3.44 µM (active)
[19]
  AC50: 1.52 µM (active)

## COc1ccc(CCN2CC34C=CC(O3)C(C(=O)NCc3ccccc3)C4C2=O)cc1OC (stereo not given)
[1]; read-out: AC50
  AC50: 14.1 µM (inconclusive)

## COc1ccc(C2C(C#N)=C(N)Oc3[nH]nc(C)c32)cc1Cn1cc([N+](=O)[O-])cn1 (stereo not given)
[5]
  AC50: 5.32 µM (active)
[6]
  EC50: 3.11 µM (active)

## CC(=O)Oc1ccc(OC(C)=O)c(SCCCCCCl)c1
[20]
  EC50: 7.65 µM (active)
[18]
  AC50: 7.84 µM (active)
[19]
  AC50: 2.58 µM (active)

## Cc1ccc(SCc2cc(=O)n(C)[nH]2)cc1
[5]
  AC50: 13.3 µM (active)
[6]
  EC50: 5.29 µM (active)

## O=[N+]([O-])c1ccc(Sc2nc(O)c3ccccc3n2)c([N+](=O)[O-])c1
[16]
  EC50: 1.48 µM (active)
[5]
  AC50: 16.9 µM (active)
[17]
  EC50: > 60 µM (not active)
[6]
  EC50: 6.05 µM (active)
